The source of these data is publication PMC10849753, “Antiproliferative activity of platinum(II) and copper(II) complexes containing novel biquinoxaline ligands” (Metallomics: Integrated Biometal Science, 2024).

The test relates to A172, LN229, U87, A549, Hela, PC-3, and MDA-231 cells. Kind of test: ROS production, DCFDA assay, all used cell lines. The test is classed as cell-based, human. The note with it: positive control at 500 μM concentration. How it is done: The reactive oxygen species (ROS) formation on the selected cell lines upon exposure to the synthesized Cu(II) and Pt(II) complexes was investigated using the oxidation-sensitive dye, 2ʹ,7ʹ-dichlorofluorescein diacetate (DCFDA, #D6883 Sigma-Aldrich). The cell lines (A172, LN229, U87, HeLa, MDA-231, PC-3, A549, and CHO-K1) were seeded (6 × 10^3 cells/well) into the 96-well plates and incubated at 37°C and 5% CO2 for 24 h. After that, the Cu(II) and Pt(II) complexes, at a concentration range of 6.25 to 100 μM, were added to the cell monolayers. Hydrogen peroxide (H2O2), at concentrations from 50 to 500 μM, was utilized as a positive control. The following day, 5 μM of DCFDA in PBS was added to the cell monolayers and, then, the plate was incubated for 30–45 min. Consequently, the fluorescence intensity was measured with 485 nm excitation and 535 nm emission wavelengths using a microplate reader. The fluorescence values of each treatment were normalized to the negative control, including only growth medium without any treatment. The assay was repeated in triplicate.

As to `OO` [H2O2, Hydrogen peroxide, reference compound], the ROS generation worked out at 3 fold.
